{"source": "patent US20070276032A1", "about": "“Use of 8-Prenylnaringenin for Hormone Replacement Therapy” (priority 2003, published 2007)", "key": {"[1]": {"system": "ovariectomized rats", "assay": "Ex vivo BMD (pQCT) of proximal tibia, 2S(−) 8-PN in ovariectomized rats (Example 3)", "parameters": "species or system Sprague-Dawley rats", "details": "OVX rats; for Total BMD, MEAN / Total BMD, MEDIAN / Trabecular BMD, MEAN / Trabecular BMD, MEDIAN: left proximal tibia ex vivo, s.c. 4 weeks", "method": "The aim of the study was to examine bone and uterine effects of a 4-week treatment with 2S(−) 8-Prenylnaringenin (8-PN) in 3-month-old ovariectomized rats. […] At the end of the study, uterine weight and ex vivo bone mineral density (BMD) of tibia were measured.\n(§1) A total of 30 female 13-14-week-old Sprague-Dawley rats were used in the study. The animals were randomized into 5 groups, with 6 rats/group. Group 1 was sham-operated (SHAM) and groups 2-5 were ovariectomized (OVX).\nTreatments with the vehicle or test substance started on the day following operation. […] The animals were sacrificed one day after the last dosing. At the end of the study, left tibiae were excised for ex vivo BMD measurement (pQCT) at proximal tibia and uteri were excised for the determination of absolute and relative weights. In addition, samples for the determination of 2S(−)8-Prenylnaringenin concentration were taken from all dosing solutions on the day when they were prepared and on the last day of use. The data of body weights, relative uterine weights and BMD were analyzed with one-way analysis of variance.\nBone mineral density measurement was carried out by pQCT (XCT-960A, Stratec, Germany). The bone specimens were thawed before measurement. Six 1 mm-thick sections of the proximal tibia (2 mm below the epiphyseal growth plate) were scanned at 0.5 mm intervals using a voxel size of 0.148 mm. Total and trabecular BMD (mg/cm^3) were measured. After bone densitometry, the specimens were wrapped back to saline saturated gauzes and stored at −20° C."}, "[2]": {"assay": "Body weight, 2S(−) 8-PN in ovariectomized rats (Example 3)", "format": "in vivo, Sprague-Dawley rats", "details": "OVX rats, s.c. once a day, 7 times a week, 4 weeks", "from_the_text": "as §1\nThe mean body weight of the animals was 271 g (SD 9, SE 2) before operation. Treatments with the vehicle or test substance started on the day following operation. The animals in the SHAM group received the vehicle, 30% hydroxypropyl-β-cyclodextrin s.c., and in the OVX groups either the vehicle or 2S(−) 8-PN at nominal doses of 0.67 mg/kg/d, 1.77 mg/kg/d or 18 mg/kg/d s.c. Treatments continued for 4 weeks; the dosing frequency was seven times a week. The animals were sacrificed one day after the last dosing. At the end of the study, left tibiae were excised for ex vivo BMD measurement (pQCT) at proximal tibia and uteri were excised for the determination of absolute and relative weights. In addition, samples for the determination of 2S(−)8-Prenylnaringenin concentration were taken from all dosing solutions on the day when they were prepared and on the last day of use. The data of body weights, relative uterine weights and BMD were analyzed with one-way analysis of variance."}, "[3]": {"system": "ovariectomized rats", "assay": "Trabecular density of proximal tibia, 8-PN racemic, 2S(−) 8-PN and estradiol hemihydrate in ovariectomized rats (Example 4)", "format": "in vivo, Sprague-Dawley rats", "details": "OVX rats; s.c. 28 days; 20 mg/kg/d in HP-β-CD", "method": "(§2) The aim of the study was to directly compare the effects of Prenylnaringenin (racemate) and 2S(−) 8-Prenylnaringenin to the effects of estradiol hemihydrate on bone mineral density and uterine weight on 3-month-old ovariectomized rats using identical formulations. In addition, the effects of estradiolhemihydrate in two vehicles (oily, aqueous) were examined for influence of formulations. The substances were administered subcutaneously(s.c.) seven days a week beginning the day after ovariectomy. At the end of the study, uterine weight and bone mineral density (BMD) of tibia were measured.\n(§3) Forty-one female Sprague-Dawley rats, 12-14 weeks of age were randomized into six groups, 6-8 animals in each. Five groups were ovariectomized (OVX) and one group was sham-operated (SHAM). Treatments started on the day following operation and continued for 28 days. The animals were treated s.c. once a day seven times a week as follows. Group 1 (SHAM vehicle group) and group 2 (OVX vehicle group) were given the vehicle 30% hydroxypropyl-β-cyclodextrin (HP-β-CD). Groups 3 and 4 were administered 4 μg/kg/d of estradiol hemihydrate in vehicle benzyl benzoate/ricinus oil (B/R) and in vehicle HP-β-CD, respectively. Groups 5 and 6 were given 20 mg/kg/d of 2S(−)8-Prenylnaringenin and racemic 8-Prenylnaringenin, respectively, both in vehicle HP-β-CD. At the end of the study, left tibiae were excised for the ex vivo BMD […] were taken from all dosing solutions on the first and last day of use.\n(§4) Vehicle 1 (used in the groups 1 and 2): 30% hydroxypropyl-β-cyclodextrin and 0.3% NaCl (w/v), 5% ethanol (v/v) in Aqua sterilisata, pH 7.4.\n(§5) Vehicle 2 (used when preparing dosing solutions of the groups 4, 5 and 6): 30% hydroxypropyl-β-cyclodextrin and 0.3% NaCl (w/v) in Aqua sterilisata, pH 7.4.\n(§6) Vehicle 3 (used when preparing a dosing solution of the group 3): benzyl benzoate/ricinus oil (B/R) 1+4, v/v."}, "[4]": {"system": "ovariectomized rats", "assay": "Relative uterus weight, 8-PN racemic, 2S(−) 8-PN and estradiol hemihydrate in ovariectomized rats (Example 4)", "format": "in vivo, Sprague-Dawley rats", "details": "OVX rats", "method": "as §2, §3, §4, §5, §6"}, "[5]": {"system": "ERE-Luc", "assay": "Estrogenic activity in the estrogen reporter mouse ERE-Luc model, luciferase activity in organs (Example 5)", "format": "in vivo, mice", "method": "In order to avoid experimental noise male animals were used.\nFourtyfive heterozygous male ERE-Luc mice of two months of age were fed with soy-free diet for two weeks before assigning them to each experimental group then all the mice were injected intraperitoneally (i.p.) with 250 μl of an oily solution containing the following compounds: • 1. Experimental group 1: vehicle • 2. Experimental group 2: 17β-estradiol at 1.5 μg/kg • 3. Experimental group 3: 2S(−)-8-PN at 30 mg/kg • 4. […] Experimental group 5: genistein at 30 mg/kg.\nThe treatment was carried out in experimental groups of three mice each and repeated three times (therefore numbers reflect the average of […] determinations on a total of 9 animals).\nSix hours after the injection, mice were sacrificed by cervical dislocation and organs were dissected and frozen on dry ice. The following organs were analyzed for lucifererase activity by enzymatic assay: prostate, liver, bone, brain.\nData represent means ±standard deviation of N=9 animals per group.\nAnalysis of variance (ANOVA) for overall comparison was followed by Tukey test for paired comparisons. All statistical procedures were carried out with Systat and SAS (*P<0.05; **P<0.01)."}, "[6]": {"details": "s.c. 28 days, 20 mg/kg/d in HP-β-CD, calculated as percentage of body weight"}, "[7]": {"details": "ERE-Luc mice, at the dosages used"}}, "data": [{"smiles": "CC(C)=CCc1c(O)cc(O)c2c1O[C@H](c1ccc(O)cc1)CC2=O", "note": "[2S(−)8-PN, 2S(−) 8-Prenylnaringenin]", "values": [{"measurement": "effect on OVX-induced decreases in BMD at the highest dose", "setting": "[1]; 18 mg/kg/d s.c., 4 weeks", "result": "completely inhibited OVX-induced effects"}, {"measurement": "effect on OVX-induced decreases in total and trabecular BMD", "setting": "[1]; dose range 0.67-18 mg/kg/d s.c., 4 weeks", "result": "prevented the OVX-induced decreases in both total and trabecular BMD at the proximal tibial metaphysis dose dependently"}, {"measurement": "Total BMD, MEAN", "setting": "[1]; 0.67 mg/kg/d", "result": 561.1, "unit": "mg/mL"}, {"measurement": "Total BMD, MEDIAN", "setting": "[1]; 0.67 mg/kg/d", "result": 569.2, "unit": "mg/mL"}, {"measurement": "Trabecular BMD, MEAN", "setting": "[1]; 0.67 mg/kg/d", "result": 319.1, "unit": "mg/mL"}, {"measurement": "Trabecular BMD, MEDIAN", "setting": "[1]; 0.67 mg/kg/d", "result": 318.7, "unit": "mg/mL"}, {"measurement": "Total BMD, MEAN", "setting": "[1]; 1.77 mg/kg/d", "result": 581.5, "unit": "mg/mL"}, {"measurement": "Total BMD, MEDIAN", "setting": "[1]; 1.77 mg/kg/d", "result": 568.1, "unit": "mg/mL"}, {"measurement": "Trabecular BMD, MEAN", "setting": "[1]; 1.77 mg/kg/d", "result": 330.9, "unit": "mg/mL"}, {"measurement": "Trabecular BMD, MEDIAN", "setting": "[1]; 1.77 mg/kg/d", "result": 329.4, "unit": "mg/mL"}, {"measurement": "Total BMD, MEAN", "setting": "[1]; 18 mg/kg/d", "result": 636.5, "unit": "mg/mL"}, {"measurement": "Total BMD, MEDIAN", "setting": "[1]; 18 mg/kg/d", "result": 635.4, "unit": "mg/mL"}, {"measurement": "Trabecular BMD, MEAN", "setting": "[1]; 18 mg/kg/d", "result": 411.8, "unit": "mg/mL"}, {"measurement": "Trabecular BMD, MEDIAN", "setting": "[1]; 18 mg/kg/d", "result": 396.6, "unit": "mg/mL"}, {"measurement": "Body weight at the end (bw4b)", "setting": "[2]; 0.67 mg/kg/d", "result": "323 (11) g"}, {"measurement": "The change in Body weight (bw4b-bw0)", "setting": "[2]; 0.67 mg/kg/d", "result": "53 (7) g"}, {"measurement": "Body weight at the end (bw4b)", "setting": "[2]; 1.77 mg/kg/d", "result": "305 (7) g"}, {"measurement": "The change in Body weight (bw4b-bw0)", "setting": "[2]; 1.77 mg/kg/d", "result": "35 (5) g"}, {"measurement": "Body weight at the end (bw4b)", "setting": "[2]; 18 mg/kg/d", "result": "304 (5) g"}, {"measurement": "The change in Body weight (bw4b-bw0)", "setting": "[2]; 18 mg/kg/d", "result": "33 (4) g"}, {"measurement": "Trabecular density at left proximal tibia, Mean", "setting": "[3]", "result": 352, "unit": "mg/cm3"}, {"measurement": "Trabecular density at left proximal tibia, Median", "setting": "[3]", "result": 352, "unit": "mg/cm3"}, {"measurement": "effect on the uterus and body weight compared with estradiol in the same vehicle (HP-β-CD)", "setting": "[4]; 20 mg/kg/d vs estradiol 4 μg/kg/d, same bone effective dose", "result": "much lower effect on the uterus and body weight than estradiol at the same bone effective dose"}, {"measurement": "Relative uterus weight, Mean", "setting": "[4]; [6]", "result": 0.067}, {"measurement": "Relative uterus weight, Median", "setting": "[4]; [6]", "result": 0.067}, {"measurement": "agonist profile in bone and prostate compared with the other compounds", "setting": "[5]; [7]", "result": "much stronger agonist profile in bone and prostate when compared to the other compounds"}, {"measurement": "estrogenic activity in liver compared with the other compounds", "setting": "[5]; [7]", "result": "almost identical to that of the other compounds"}, {"measurement": "Luciferase activity, Bone", "setting": "[5]; male ERE-Luc mice, i.p. 30 mg/kg, six hours after the injection, controls 2.8", "result": "5.5 ** arbitrary units"}, {"measurement": "Luciferase activity, Brain", "setting": "[5]; male ERE-Luc mice, i.p. 30 mg/kg, six hours after the injection, controls 6.5", "result": 8.0, "unit": "arbitrary units"}, {"measurement": "Luciferase activity, Liver", "setting": "[5]; male ERE-Luc mice, i.p. 30 mg/kg, six hours after the injection, controls 7.6", "result": "12.5 ** arbitrary units"}]}]}
